Structures are written as SMILES.

The test system of the assay is phytase (extracellular phytase from P. acidilactici SMVDUDB2). The following applies: 0.1-1.8 mM sodium phytate, 0.2 M sodium acetate pH 5.5.

Usually Km stands for the concentration of substrate that gives half-maximal velocity. As to `O=P(O)(O)O[C@H]1[C@H](OP(=O)(O)O)[C@@H](OP(=O)(O)O)[C@H](OP(=O)(O)O)[C@@H](OP(=O)(O)O)[C@H]1OP(=O)(O)O` [sodium phytate], the Km stood at 385 µM.

Values taken from paper PMC7002416, “Probiotic properties of a phytase producing Pediococcus acidilactici strain SMVDUDB2 isolated from traditional fermented cheese product, Kalarei” (Scientific Reports, 2020).
